Like-named read-outs stand apart in the source and are kept apart here.
Columns and labels:
[1] = Electrochemistry: metal-centered redox potential; type: physicochemical; conditions: for Redox Potential (E1/2): metal centered, pH 7.8 if not otherwise specified; for redox potential: text of Example VIII, unit not given
Experimental: Electrochemistry. The electrochemical characterization was performed as described previously on a Voltammetric Analyzer Model 600 (CH instrument) using a glassy carbon electrode (Ag/AgCl reference and Pt auxiliary electrodes), at 0.5 mM porphyrin, pH 7.8 (0.05 M phosphate buffer), 0.1 M NaCl. The potentials were standardized against potassium ferricyanide/potassium ferrocyanide couple (Batinic-Haberle et al, Arch. Biochem. Biophys. 343:225 (1997); Kolthof et al, J. Phys. Chem. 39:945 (1974)).
Electrochemistry. The metal-centered redox behavior of all metalloporphyrin products was reversible. The half-wave potentials (E^O1/2) were calculated as the average of the cathodic and anodic peaks and are given in mV vs NHE (Table 5). The average shift per chlorine is +55 mV (Table 5), which is in agreement with the values previously reported for H2TPP derivatives (between −50 and +70 mV) (Sen et al, Chem. Soc. Faraday Trans. 93:4281 (1997); Autret et al. J. Chem. Soc. Dalton Trans. 2793 (1996); Hariprasad et al, J. Chem. Soc. Dalton Trans. 3429 (1996); Tagliatesta et al, Inorg. Chem. 35:5570 (1996); Ghosh, J. Am. Chem. Soc. 117:4691 (1995); Takeuchi et al, J. Am. Chem. Soc. 116:9730 (1994); Binstead et al, Inorg. Chem. 30:1259 (1991); Giraudeau et al, J. Am. Chem. Soc. 101:3857 (1979)). This shift appears to be higher (˜+65 mV) between 0 and 1, and between 2 and 3 chlorines (Table 5). […] The manganese redox state of MnCl4TE-2-PyP^5 (E^O1/2=+448 mV) and MnOBTMPyP^4+ (E^O1.2=+480 mV) is 3+ and 2+, respectively. This difference may be explained by their difference in terms of redox potential (˜30 mV) but also by structural considerations, for instance an increased distortion of the porphyrin ring in the case of MnOBTMPyP^4+. (Batinic-Haberle et al, Arch. Biochem. Biophys. 343:225 (1997); Ochsenbein et al, Angew. Chem. Int. Ed. Engl. 33:348 (1994)).

SOD null E. coli (JI132) = test: Aerobic growth of SOD null E. coli strain versus parental strain; type: cell-based; conditions: for aerobic growth (A700) of SOD null E. coli cells: 20 μM, glucose minimal medium (M9) plus 5 essential amino acids, JI132
Experimental: FIG. 3. SOD activity in vivo (E. coli) of 1, 2, 3* and 4* (20 μM) in minimal medium (mixture of atropoisomers, JI=SOD deficient strain, AB parental strain).
(§1) SOD activity can be monitored in the presence and absence of EDTA using the method of McCord and Fridovich (J. Biol. Chem. 244:6049 (1969)). The efficacy of a mimetic can also be determined by measuring the effect of the mimetic on the aerobic growth of a SOD null E. coli strain versus a parental strain lacking the specific mutations. Specifically, parental E. coli (AB1157) and SOD null E. coli. (JI132) can be grown in M9 medium containing 0.2% casamino acids and 0.2% glucose at pH 7.0 and 37° C.; growth can be monitored in terms of turbidity followed at 700 nm.
The activity in vivo of the mimetics of the invention can be tested on an E. coli strain deleted of the genes coding for both the MnSOD and FeSOD. In this assay, the efficacy of a mimetic is determined by measuring the effect of the mimetic on the aerobic growth of a SOD null E. coli strain versus a parental strain. Specifically, parental E. coli (AB1157) and SOD null E. coli. (JI132) are grown in M9 medium containing 0.2% casamino acids and 0.2% glucose at pH 7.0 and 37° C.; growth is monitored in terms of turbidity followed at 700 nm.

[2] = SOD-like activity in vitro (xanthine/xanthine oxidase, ferricytochrome c; McCord and Fridovich); type: biochemical; conditions: for rate of dismutation (kcat): Example VII
Experimental: as §1
The superoxide dismutase activity of the mimetics of the invention depends on a number of factors, including thermodynamic factors (eg the metal-centered redox-potential see FIG. 1)), and kinetic factors (eg electrostatic facilitation).
Superoxide dismuting activity. The SOD-like activities were measured using the xanthine/xanthine oxidase system as a source of O2^− and ferricytochrome c as its indicating scavenger (McCord et al, J. Biol. Chem. 244:6049 (1969)). O2— was produced at the rate of 1.2 μM per minute and reduction of ferricytochrome c was followed at 550 nm. Assays were conducted in presence of 0.1 mM EDTA in 0.05 M phosphate buffer (pH 7.8). Rate constants for the reaction of the compounds were based upon competition with […] cytochrome c, kcyt c=2.6×10^5 M^−1s^−1 (Butler et al, J. Biol. Chem. 257:10747 (1982)). All measurements were done at 25° C. Cytochrome c concentration was at least 10^3-fold higher than the concentrations of the SOD mimics and the rates were linear for at least two minutes, during which the compounds intercepted ˜100 equivalents of O2^−, thus confirming the catalytic nature of O2^− dismutation in presence of the mimics.
Superoxide dismuting activities. SOD-like activities were measured as described previously, based on competition with cytochrome c (McCord et al, J. Biol. Chem. 244:6049 (1969)). MnClxTE-2-PyP^5+ SOD-like activities are reported in Table 5, IC50 (M) representing the concentration for one unit of activity (or the concentration that causes 50% inhibition of cytochrome c reduction by O2^−) and kcat (M^−1s^−1) representing the rate constant for the superoxide dismutation reaction. The SOD-like activity per mole of MnCl4TE-2-PyP^5 is approximately 2-, 7- and 100-fold higher than MnOBTMPyP^4+, MnTM-2-PyP^5+ and MnTM-4PyP^5+, respectively (Faulkner et al, J. Biol. Chem. 269:23471 (1994); Batinic-Haberle et al, Arch. Biochem. Biophys. 343:225 (1997); Batinic-Haberle et al, J. Biol. Chem. 273:24521 (1998)). The SOD-like activity of MnCl4TE-2-PyP^5+ represents 20% of the activity of the Cu,Zn-SOD enzyme on a molar basis (40% per active site considering that the enzyme has two active sites) (Klug-Roth et al, J. Am. Chem. Soc. 95:2786 (1973)).

[3] = literature comparators, cited from earlier work

Compound | E°1/2 half-wave potential ([1]; vs NHE, 0.5 mM porphyrin, 0.1 M NaCl, 0.05 M phosphate buffer (pH 7.8)) | aerobic growth (A700) of SOD null E. coli cells (SOD null E. coli (JI132)) | kcat rate constant for the superoxide dismutation reaction ([2]; 0.1 mM EDTA, 0.05 M phosphate buffer pH 7.8, 25° C.) | IC50 ([2]; 0.1 mM EDTA, 0.05 M phosphate buffer pH 7.8, 25° C., read-out: IC50 concentration that causes 50% inhibition of cytochrome c reduction by O2^−) [nM] | Redox Potential (E1/2) ([1]; vs NHE) | redox potential [1] | aerobic growth (A700) of SOD null E. coli cells (SOD null E. coli (JI132); listed as 3) | toxicity in vivo (E. coli) (SOD null E. coli (JI132); FIG. 3) | rate of dismutation (kcat) [2] [M⁻¹ s⁻¹] | SOD activity in vitro relative to the para compound 1 ([2]; in vitro enzymatic assay) | kcat of comparison compounds ([3]; listed as MnTM-2-PyP^3−) | E1/2 one-electron metal-centered redox-potential ([1]; vs NHE, listed as 1) | half-wave potential (E1/2) ([1]; vs normal hydrogen electrode (NHE), Example VII) | aerobic growth (A700) of SOD null E. coli cells (SOD null E. coli (JI132); listed as 1) | growth of SOD-deficient Escherichia coli (SOD null E. coli (JI132); Example VII) | kcat of comparison compounds [3]
CC[n+]1ccccc1-c1c2nc(c(-c3cccc[n+]3CC)c3ccc([n-]3)c(-c3cccc[n+]3CC)c3nc(c(-c4cccc[n+]4CC)c4ccc1[n-]4)C=C3)C=C2.[Mn+3] [MnTE-2-PyP^5+, manganic meso-tetrakis-(N-ethylpyridinium-2-yl)porphyrin] | +228 mV | increase in A700 | 5.7 10^7 M^−1 s^−1 | 45 | – | – | – | – | – | – | – | – | – | – | – | –
manganese(III) 5,10,15,20-tetrakis(N-methylpyridyl)porphyrin [MnTM-2-PyP^5+] | – | – | – | – | +0.22 V | +0.22 | increase in A700 | decreased toxicity | 6e+07 | more than an order of magnitude more active | 6.0 10^7 M^−1 s^−1 | – | – | – | – | –
manganese(III) 5,10,15,20-tetrakis(N-methylpyridyl)porphyrin [MnTM-4-PyP^5+, reference compound] | – | – | – | – | +0.06 V | +0.06 | – | – | 3.8e+06 | – | – | +0.060 V | +0.060 V | did not show an increase in A700 | inhibited growth | 0.4 10^7 M^−1 s^−1

— patent US20080113956A1, “Substituted Porphyrins” (priority 1997, published 2008)
